According to patent publication US12709609B2, “Crystalline form of Selinexor” (Karyopharm Therapeutics Inc., priority 2020, dated 2026):

Legend:
[1] = Dynamic vapor sorption (DVS) moisture sorption isotherm; format: physicochemical
Procedure: Sorption isotherms were obtained using a SMS DVS Intrinsic moisture sorption analyser, controlled by DVS Intrinsic Control software. The sample temperature was maintained at 25° C. by the instrument controls. The humidity was controlled by mixing streams of dry and wet nitrogen, with a total flow rate of 200 ml/min. The relative humidity was measured by a calibrated Rotronic probe (dynamic range of 1.0-100% RH), located near the sample. The weight change, (mass relaxation) of the sample as a function of % RH was constantly monitored by a microbalance (accuracy±0.005 mg). Typically, 5 to 30 mg of sample was placed in a tared mesh stainless steel basket under ambient conditions. The sample was loaded and unloaded at 40% RH and 25° C. (typical room conditions). A moisture sorption isotherm was performed as outlined below (2 scans per complete cycle). The standard isotherm was performed at 25° C. at 10% RH intervals over a 0-90% RH range. Typically, a double cycle (4 scans) was carried out. Data analysis was carried out within Microsoft Excel using the DVS Analysis Suite. [table] The sample was recovered after completion of the isotherm and re-analysed by XRPD.

[2] = Thermogravimetric analysis (TGA); format: physicochemical; details: from ambient temperature to about 200° C., followed by sample degradation
Procedure: TGA data were collected on a TA Instruments Q500 TGA, equipped with a 16 position auto-sampler. Typically, 5-10 mg of each sample was loaded onto a pre-tared aluminum DSC pan and heated to 10° C./min from ambient temperature to 350° C. A nitrogen purge at 60 ml/min was maintained over the sample. The instrument control software was Advantage for Q Series and Thermal Advantage and the data were analysed using Universal Analysis or TRIOS

- XRPD pattern after the DVS cycle compared with XRPD prior to the DVS cycle (form stability) ([1]; after DVS cycle 0-90% RH): identical
- DVS weight gain ([1]; at 90% RH, 25° C., two DVS cycles): about 0.16%
- moisture uptake behaviour in DVS ([1]; over 0-90% RH range): gradual reversible uptake
- TGA weight change on heating [2]: No weight change
SMILES: O=C(/C=C\n1cnc(-c2cc(C(F)(F)F)cc(C(F)(F)F)c2)n1)NNc1cnccn1 [crystalline Form ZL, (Z)-3-(3-(3,5-bis(trifluoromethyl)phenyl)-1H-1,2,4-triazol-1-yl)-N′-(pyrazin-2-yl) acrylohydrazide]
